Patent publication US11666642B2, “PDE5 compositions and methods for immunotherapy” (Obsidian Therapeutics, Inc., priority 2017, dated 2023)

Legend:
[1] = tested on: HEK293T cells; assay: Effect of linker on DD regulation of IL15-IL15Ra, FACS using the HA antibody; type: cell-based; details: for Stabilization ratio: 1 μM Vardenafil vs DMSO control; for % HA positive cells, Vardenafil: 1 μM Vardenafil, 24 hours; for % HA positive cells, Control: DMSO control
Experimental: The effect of the type of linker used and the length of the linker on the regulation of the expression of the payload was tested. IL15-IL15Ra fusion constructs were linked to the hPDE5 (R732L) DD using GSGSGS (SEQ ID NO. 8330) as the linker (as in OT-IL15-111), or […] (SEQ ID NO. 8331) as the linker (as in OT-IL15-112) or using […] (SEQ ID NO. 8332) as the linker (as in OT-IL15-113). The IL15 portion of the construct was tagged with a Flag tag while the IL15Ra portion was tagged with a HA tag. These tags allow both the components of the construct to be tracked individually in experiments. […] The properties of the DDs regulated IL15-IL15Ra payloads were analyzed in the presence and absence of ligands via FACS using the HA antibody as previously described.

[2] = tested on: HEK 293 cells; assay: CAR surface expression by Protein L staining, dose and time dependence; type: cell-based; details: OT-CD19-053 in HEK 293 cells, 24 hours of ligand
Experimental: The dose dependent regulation of OT-CD19-052 and OT-CD19-053 was measured in HEK 293 cells transfected with 2 ug DNA and stably selected using 2 ug/ml puromycin.
Cells were also treated with ligand for varying durations of time with ligand concentrations shown in Table 45C and Protein L expression was measured using FACS.

[3] = tested on: NIH 3T3 cells; assay: Western blot analysis using a GFP antibody, hPDE5 C terminal mutants; details: hPDE5 mutant construct, 24 hours and 48 hours, vs untreated cells
Text: All comparisons were made against cells that were not treated with either ligand.

Compound	Stabilization ratio [1]	% HA positive cells, Vardenafil [1]	% HA positive cells, Control [1]	other results
OT-IL15-113: IL15-IL15Ra fusion linked to hPDE5 (R732L) DD using GSGSGGGSGS linker	1.65	69.1%	42%	–
OT-IL15-111: IL15-IL15Ra fusion linked to hPDE5 (R732L) DD using GSGSGS linker	1.69	63.2%	37.5%	–
CCCc1nc(C)c2c(=O)[nH]c(-c3cc(S(=O)(=O)N4CCN(CC)CC4)ccc3OCC)nn12 [Vardenafil]	–	–	–	EC50 ([2]; Homo sapiens, HEK293): 25 nM
CCCc1nn(C)c2c(=O)[nH]c(-c3cc(S(=O)(=O)N4CCN(C)CC4)ccc3OCC)nc12 [Sildenafil]	–	–	–	EC50 [2]: 1500 nM; GFP protein levels by western blot ([3]; 0.1 μM ligand): modest stabilization of GFP protein levels; GFP protein levels by western blot ([3]; 1 μM ligand): stabilization of GFP increased
OT-IL15-112: IL15-IL15Ra fusion linked to hPDE5 (R732L) DD using GSGSGSGS linker	–	74.6%	41.6%	–
